pIC50: −log10 of the molar value.
Assay: Inhibition of Influenza A virus H5N1 Neuraminidase

COc1cccc(CCNC(=O)CSc2nnc(-c3ccco3)[nH]2)c1
pIC50: 5.04

COc1ccc(C(=O)NNC(=O)CSc2nnc(-c3ccco3)[nH]2)cc1
pIC50: 4.92

O=C(CSc1nnc(-c2ccco2)[nH]1)Nc1cccc(Cl)c1
pIC50: 5.36

COc1cc(F)ccc1NC(=O)CSc1nnc(-c2ccco2)[nH]1
pIC50: 5.74

CCC(CC)O[C@@H]1C=C(C(=O)O)C[C@H](N)[C@H]1NC(C)=O [OSELTAMIVIR CARBOXYLATE]
pIC50: 7.00

COc1ccc(C)cc1NC(=O)CSc1nnc(-c2ccco2)[nH]1
pIC50: 4.55

COc1ccc(OC)c(NC(=O)CSc2nnc(-c3ccco3)[nH]2)c1
pIC50: 4.26

COc1cccc(NC(=O)CSc2nnc(-c3ccco3)[nH]2)c1
pIC50: 6.62

O=C(CSc1nnc(-c2ccco2)[nH]1)NCCc1ccc2c(c1)OCO2
pIC50: 5.78

O=C(CSc1nnc(-c2ccco2)[nH]1)NCCc1cccc(F)c1
pIC50: 5.09

COc1ccc(NC(=O)CSc2nnc(-c3ccco3)[nH]2)cc1OC
pIC50: 5.84

CCc1ccc(NC(=O)CSc2nnc(-c3ccco3)[nH]2)cc1
pIC50: 6.96

Reference: ChEMBL document CHEMBL5131477, “Design, synthesis and biological evaluation of 1,3,4-triazole-3-acetamide derivatives as potent neuraminidase inhibitors” (Bioorg Med Chem Lett, 2022)
